What was measured:
[1] = target: Apolipoprotein L1 (Homo sapiens, UniProt O14791); test: Inhibition of APOL1 G1 variant in human HEK293-T-REx cells measured by Thallium assay; type: cell-based
[2] = test system: Trypanosoma brucei brucei; test: Antitrypanosomal activity against Trypanosoma brucei brucei assessed as trypanosome lysis using recombinant APOL1 protein G1 variant and measured by Alamar blue based fluoresence assay; type: functional, organism-based

Structure (SMILES)	IC50 [1] [nM]	IC50 [2] [nM]
C[C@H](O)CNC(=O)[C@H]1C[C@H](c2c(-c3ccc(F)cc3)[nH]c3c(F)cc(F)cc32)C1	0.25	250
CN(C)C[C@@H]1CCN(C(=O)[C@H]2C[C@H](c3c(-c4ccc(F)cc4)[nH]c4c(F)cc(F)cc43)C2)C[C@H]1O	> 1000	250
O=C(N[C@@H]1CCC[C@@H]1O)[C@H]1C[C@H](c2c(-c3ccc(F)cc3)[nH]c3c(F)cc(F)cc32)C1	> 1000	250
O=C([C@H]1C[C@H](c2c(-c3ccc(F)cc3)[nH]c3c(F)cc(F)cc32)C1)N1C[C@@H]2[C@@H](CO)[C@@H]2C1	> 1000	> 1000
CC[C@@H](CO)NC(=O)[C@H]1C[C@H](c2c(-c3ccc(F)cc3)[nH]c3c(F)cc(F)cc32)C1	0.25	< 250
CC(NC(=O)[C@H]1C[C@H](c2c(-c3ccc(F)cc3)[nH]c3c(F)cc(F)cc32)C1)C(N)=O (some centres undefined)	0.25	250
CN(CCO)C(=O)[C@H]1C[C@H](c2c(-c3ccc(F)cc3)[nH]c3c(F)cc(F)cc32)C1	< 250	< 250
CC(C)(NC(=O)[C@H]1C[C@H](c2c(-c3ccc(F)cc3)[nH]c3c(F)cc(F)cc32)C1)C(N)=O	0.25	< 250
CC(O)CNC(=O)[C@H]1C[C@H](c2c(-c3ccc(F)cc3)[nH]c3c(F)cc(F)cc32)C1 (some centres undefined)	0.25	250
C[C@@H](NC(=O)[C@H]1C[C@H](c2c(-c3ccc(F)cc3)[nH]c3c(F)cc(F)cc32)C1)C(=O)N(C)C	> 1000	> 1000
O=C(NC1CCOC1)[C@H]1C[C@H](c2c(-c3ccc(F)cc3)[nH]c3c(F)cc(F)cc32)C1 (some centres undefined)	> 1000	250
CC(C#N)(CO)NC(=O)[C@H]1C[C@H](c2c(-c3ccc(F)cc3)[nH]c3c(F)cc(F)cc32)C1 (some centres undefined)	0.25	< 250
C[C@H]1CN(C(=O)[C@H]2C[C@H](c3c(-c4ccc(F)cc4)[nH]c4c(F)cc(F)cc43)C2)CC[C@@H]1O	> 1000	> 1000
O=C([C@H]1C[C@H](c2c(-c3ccc(F)cc3)[nH]c3c(F)cc(F)cc32)C1)N1CCCCC1CO (some centres undefined)	> 1000	250
CC(O)CN(C)C(=O)[C@H]1C[C@H](c2c(-c3ccc(F)cc3)[nH]c3c(F)cc(F)cc32)C1 (some centres undefined)	> 1000	250
O=C([C@H]1C[C@H](c2c(-c3ccc(F)cc3)[nH]c3c(F)cc(F)cc32)C1)N1CC[C@H](CO)C1	> 1000	> 1000
Cn1ncc(CNC(=O)[C@H]2C[C@H](c3c(-c4ccc(F)cc4)[nH]c4c(F)cc(F)cc43)C2)n1	0.25	< 250
CCC(O)(CCCO)CNC(=O)[C@H]1C[C@H](c2c(-c3ccc(F)cc3)[nH]c3c(F)cc(F)cc32)C1 (some centres undefined)	> 1000	> 1000
O=C([C@H]1C[C@H](c2c(-c3ccc(F)cc3)[nH]c3c(F)cc(F)cc32)C1)N1CCC(CCO)CC1	> 1000	> 1000
O=C1NCCC1CNC(=O)[C@H]1C[C@H](c2c(-c3ccc(F)cc3)[nH]c3c(F)cc(F)cc32)C1 (some centres undefined)	> 1000	> 1000
O=C1CCC(NC(=O)[C@H]2C[C@H](c3c(-c4ccc(F)cc4)[nH]c4c(F)cc(F)cc43)C2)C(=O)N1 (some centres undefined)	0.25	250
O=C1NCC[C@@H]1NC(=O)[C@H]1C[C@H](c2c(-c3ccc(F)cc3)[nH]c3c(F)cc(F)cc32)C1	0.25	250
O=C([C@H]1C[C@H](c2c(-c3ccc(F)cc3)[nH]c3c(F)cc(F)cc32)C1)N1CCO[C@H](CO)C1	> 1000	> 1000
O=C([C@H]1C[C@H](c2c(-c3ccc(F)cc3)[nH]c3c(F)cc(F)cc32)C1)N1CC(n2cccn2)C1	> 1000	> 1000

Structure (SMILES)	IC50 [1] [nM]	IC50 [2] [nM]
NCCCNC(=O)[C@H]1C[C@H](c2c(-c3ccc(F)cc3)[nH]c3c(F)cc(F)cc32)C1	0.25	< 250
COCc1cc(CNC(=O)[C@H]2C[C@H](c3c(-c4ccc(F)cc4)[nH]c4c(F)cc(F)cc43)C2)n[nH]1	> 1000	> 1000
O=C([C@H]1C[C@H](c2c(-c3ccc(F)cc3)[nH]c3c(F)cc(F)cc32)C1)N1CCCC[C@H]1CO	> 1000	250
CCC1(O)CN(C(=O)[C@H]2C[C@H](c3c(-c4ccc(F)cc4)[nH]c4c(F)cc(F)cc43)C2)C1	> 1000	> 1000
O=C(NC1(CO)CC(F)(F)C1)[C@H]1C[C@H](c2c(-c3ccc(F)cc3)[nH]c3c(F)cc(F)cc32)C1	0.25	< 250
O=C(NCCOCCO)[C@H]1C[C@H](c2c(-c3ccc(F)cc3)[nH]c3c(F)cc(F)cc32)C1	< 250	< 250
O=C(NCc1ccn[nH]1)[C@H]1C[C@H](c2c(-c3ccc(F)cc3)[nH]c3c(F)cc(F)cc32)C1	0.25	250
O=C([C@H]1C[C@H](c2c(-c3ccc(F)cc3)[nH]c3c(F)cc(F)cc32)C1)N1CCOCC1CCO (some centres undefined)	> 1000	> 1000
O=C([C@H]1C[C@H](c2c(-c3ccc(F)cc3)[nH]c3c(F)cc(F)cc32)C1)N1CCC(O)(CO)CC1	> 1000	> 1000
O=C(NC1(CO)CCOC1)[C@H]1C[C@H](c2c(-c3ccc(F)cc3)[nH]c3c(F)cc(F)cc32)C1 (some centres undefined)	< 250	< 250
O=C([C@H]1C[C@H](c2c(-c3ccc(F)cc3)[nH]c3c(F)cc(F)cc32)C1)N1CCC[C@@H](CO)C1	> 1000	> 1000
CC(O)C1CCN(C(=O)[C@H]2C[C@H](c3c(-c4ccc(F)cc4)[nH]c4c(F)cc(F)cc43)C2)CC1 (some centres undefined)	> 1000	> 1000
COCC1(NC(=O)[C@H]2C[C@H](c3c(-c4ccc(F)cc4)[nH]c4c(F)cc(F)cc43)C2)CC1	< 250	< 250
Cc1cc(CNC(=O)[C@H]2C[C@H](c3c(-c4ccc(F)cc4)[nH]c4c(F)cc(F)cc43)C2)on1	> 1000	250
CC1(O)CN(C(=O)[C@H]2C[C@H](c3c(-c4ccc(F)cc4)[nH]c4c(F)cc(F)cc43)C2)C1	0.25	250
Cn1cncc1CNC(=O)[C@H]1C[C@H](c2c(-c3ccc(F)cc3)[nH]c3c(F)cc(F)cc32)C1	> 1000	250
C[C@H](O)[C@@H](CO)NC(=O)[C@H]1C[C@H](c2c(-c3ccc(F)cc3)[nH]c3c(F)cc(F)cc32)C1	< 250	< 250
O=C([C@H]1C[C@H](c2c(-c3ccc(F)cc3)[nH]c3c(F)cc(F)cc32)C1)N1CC(O)C(CO)C1 (some centres undefined)	> 1000	250
O=C(NCC1(CO)COC1)[C@H]1C[C@H](c2c(-c3ccc(F)cc3)[nH]c3c(F)cc(F)cc32)C1	> 1000	> 1000
CC(CO)(CO)NC(=O)[C@H]1C[C@H](c2c(-c3ccc(F)cc3)[nH]c3c(F)cc(F)cc32)C1	< 250	< 250
Cc1cc(NC(=O)[C@H]2C[C@H](c3c(-c4ccc(F)cc4)[nH]c4c(F)cc(F)cc43)C2)no1	0.25	250
O=C([C@H]1C[C@H](c2c(-c3ccc(F)cc3)[nH]c3c(F)cc(F)cc32)C1)N1CCCC(O)C1 (some centres undefined)	> 1000	250
O=C(NCC1(O)CCCCC1)[C@H]1C[C@H](c2c(-c3ccc(F)cc3)[nH]c3c(F)cc(F)cc32)C1	> 1000	> 1000
